Measurements published in patent US9844546B2, “Antibody against human HIF hydroxylase” (OXFORD UNIVERSITY INNOVATION LIMITED, priority 2001, dated 2017).

Legend:
HIF-α/pVHL interaction = experiment: Interaction of HIF-1α and pVHL.HA reticulocyte IVTTs, anti-HA co-immunoprecipitation; assay type: biochemical, human; conditions: 100 μM added to the HIF-1α IVTT
Method: ^35S-Methionine labelled […] subunits and pVHL.HA were produced separately by IVTT (in vitro transcription and translation) in reticulocyte lysates. IVTTs were performed under different conditions, mixed, and assayed for interaction by anti-HA co-immunoprecipitation. These in vitro assays allowed analysis of the HIFα/pVHL interaction using the recombinant proteins.
Labelled HIF-1α and pVHL.HA were generated separately in reticulocyte lysates (IVTT), in the presence or absence of Co (II), desferrioxamine, or Fe(II). Lysates were mixed in various combinations, and interactions assayed by anti-HA immunoprecipitation.
• 1. G. L. Semenza, Genes Dev 14, 1983-91. (2000). • 2. N. V. Iyer, et al., Genes Dev. 12, 149-162 (1997). • 3. E. Maltepe, J. V. Schmidt, D. Baunoch, C. A. Bradfield, M. C. Simon, Nature 386, 403-407 (1997). • 4. G. L. Wang, B.-H. Jiang, E. A. Rue, G. L. Semenza, Proc. Natl. Acad. Sci. USA 92, 5510-5514 (1995). • 5. S. Salceda, J. Caro, J. Biol. Chem. 272, 22642-22647 (1997). • 6. L. E. Huang, J. Gu, M. Schau, H. F. Bunn, Proc. Natl. Acad. Sci. USA 95, 7987-7992 (1998). • 7. M. S. Wiesener, et al., Blood 92, 2260-2268 (1998). • 8. P. H. Maxwell, et al., Nature 399, 271-275 (1999). • 9. K. Iwai, et al., Proc. Natl. Acad. Sci. USA 96, 12436-12441 (1999). • 10. J. Lisztwan, G. Imbert, C. Wirbelauer, M. Gstaiger, W. Krek, Genes Dev 13, 1822-33 (1999). • 11. M. E. Cockman, et al., J Biol Chem (2000). • 12. M. Ohh, et al., Nat Cell Biol 2, 423-7. (2000). • 13. T. Kamura, et al., Proc Natl Acad Sci USA 97, 10430-5. (2000). • 14. K. Tanimoto, Y. Makino, T. Pereira, L. Poellinger, Embo J 19, 4298-309. (2000). • 15. M. A. Goldberg, S. P. Dunning, H. F. Bunn, Science 242, 1412-1415 (1988). • 16. G. L. Wang, G. L. Semenza, Blood 82, 3610-3615 (1993). • 17. G. L. Semenza, Cell 98, 281-284 (1999). • 18. Hypoxia (<0.1% oxygen) was obtained in a workstation with O2, CO2 and temperature control (Ruskinn Technologies, Leeds, UK). For hypoxic harvest, buffers were preincubated in the chamber overnight. […]

[1] = tested on: HIF-α prolyl-hydroxylase (HIF-PH) of cell extract; experiment: Modifying activity (HIF-PH) of cell extract on HIF substrate (Gal/HIF-1α549-582/VP16 or 19:WT), pVHL capture assay; assay type: biochemical, mammalian; conditions: titration, cell extract
Method: The unlabelled HIF-1α substrate was immunopurified on beads, washed, and aliquots incubated under different test conditions in buffer or cell extract. After further washing, the beads were assayed for ability to interact with 35-S labelled pVHL IVTT (21) which was then visualised by fluorography.
The capture of labelled pVHL by different HIF substrates was monitored after exposure to various test conditions.
We went on to test a series of 2-oxoglutarate analogues which act as competitive inhibitors of this class of enzyme (29) for ability to inhibit HIF-PH as assessed by the ability of cell extracts to modify either HIF polypeptide (19:WT) or a HIF fusion protein (Gal/HIF-1α549-582/VP16) so as to promote pVHL capture. […] In one such experiment the effect of N-oxalylglycine on pVHL capture by a biotinylated HIF polypeptides as substrate was monitored. The WT:19 and 19:Pro564Hyp polypeptides described above were used as substrates. […] The effect of dimethyl-oxalyglycine on HIF-1α expression was also studied. HIF-1α immunoblot analysis of extracts of Hep3B and U2OS cells exposed to dimethyl-oxalylgylcine (0, 0.1 or 1.0 mM) for 6 hours was carried out. […]

HIF-1α/pVHL interaction = target: T1, HIF-1α/pVHL interaction (Homo sapiens, UniProt P40337); experiment: Polypeptide blocking assay of HIF-1α and pVHL.HA IVTT mixture, anti-HA immunoprecipitation; assay type: binding; conditions: cell extract supplemented with Fe(II)
T1 construct: made in house; host or cells: TNT rabbit reticulocyte lysate (Promega), in vitro transcription/translation
T1 sequence (P40337 whole entry): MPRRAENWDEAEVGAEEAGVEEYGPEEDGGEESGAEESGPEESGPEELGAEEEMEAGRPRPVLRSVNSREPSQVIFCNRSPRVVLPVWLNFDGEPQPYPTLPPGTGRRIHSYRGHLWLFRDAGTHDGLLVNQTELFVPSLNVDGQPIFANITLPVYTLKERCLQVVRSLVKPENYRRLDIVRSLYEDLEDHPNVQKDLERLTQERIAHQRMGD
Method: Further studies were performed using synthetic polypeptides as inhibitors of the HIF-1α/pVHL interaction (23). […] Results for a series of polypeptides derived from this domain are summarized in FIG. 1B and implicate a similar minimal interaction domain. […] This polypeptide comprises HIF-1α polypeptide residues 556 to 574 and its ability to block binding following exposure to a variety of direct oxidation conditions was assessed.
We synthesized a polypeptide (HIF-1α residues 556-574), containing a trans-4-hydroxy-S-proline residue at position 564 (19:Pro564Hyp), since the trans-4-hydroxylation is the commonest enzymatic proline oxidation (25). A polypeptide blocking assay was carried out using the 19:Pro564Hyp modified polypeptide and, as a control, the unmodified polypeptide without the trans-4-hydroxylation (19:WT). The 19:WT polypeptide was either incubated with cell extract before the binding assay or was untreated. The 19:Pro564Hyp polypeptide was added to a mixture of HIF-1α and pVHL-HA IVTTs at a concentration of 1, 0.25, 0.05 or 0.01 μM and the cell extract treated or untreated 19:WT polypeptide at a concentration of 0.5 μM. Interaction of HIF-1α with pVHL was then assayed by anti-HA immunoprecipitation. […] A pVHL capture assay was then carried out using biotinylated synthetic polypeptides. The same polypeptides, 19:Pro564Hyp and 19:WT were assessed for the ability to capture wild type or mutant (Pro86His) pVHL. […] In both cases capture was specific for wild type, as opposed to mutant, pVHL.
• 1. G. L. Semenza, Genes Dev 14, 1983-91. (2000). • 2. N. V. Iyer, et al., Genes Dev. 12, 149-162 (1997). • 3. E. Maltepe, J. V. Schmidt, D. Baunoch, C. A. Bradfield, M. C. Simon, Nature 386, 403-407 (1997). • 4. G. L. Wang, B.-H. Jiang, E. A. Rue, G. L. Semenza, Proc. Natl. Acad. Sci. USA 92, 5510-5514 (1995). • 5. S. Salceda, J. Caro, J. Biol. Chem. 272, 22642-22647 (1997). • 6. L. E. Huang, J. Gu, M. Schau, H. F. Bunn, Proc. Natl. Acad. Sci. USA 95, 7987-7992 (1998). • 7. M. S. Wiesener, et al., Blood 92, 2260-2268 (1998). • 8. P. H. Maxwell, et al., Nature 399, 271-275 (1999). • 9. K. Iwai, et al., Proc. Natl. Acad. Sci. USA 96, 12436-12441 (1999). • 10. J. Lisztwan, G. Imbert, C. Wirbelauer, M. Gstaiger, W. Krek, Genes Dev 13, 1822-33 (1999). • 11. M. E. Cockman, et al., J Biol Chem (2000). • 12. M. Ohh, et al., Nat Cell Biol 2, 423-7. (2000). • 13. T. Kamura, et al., Proc Natl Acad Sci USA 97, 10430-5. (2000). • 14. K. Tanimoto, Y. Makino, T. Pereira, L. Poellinger, Embo J 19, 4298-309. (2000). • 15. M. A. Goldberg, S. P. Dunning, H. F. Bunn, Science 242, 1412-1415 (1988). • 16. G. L. Wang, G. L. Semenza, Blood 82, 3610-3615 (1993). • 17. G. L. Semenza, Cell 98, 281-284 (1999). • 18. Hypoxia (<0.1% oxygen) was obtained in a workstation with O2, CO2 and temperature control (Ruskinn Technologies, Leeds, UK). For hypoxic harvest, buffers were preincubated in the chamber overnight. RCC4-VHL.HA, labelling conditions and co-immunoprecipitation assays have been described previously (11); in the current study 12.5 μM MG132 was used for proteasomal inhibition. For standard harvest, the cells were removed from the chamber after hypoxic exposure, prior to cell lysis. Co-immunoprecipitation assays on all lysates were performed at 4° C. under ambient oxygen conditions. […] When programming in hypoxia, reaction mix was preincubated in the workstation for 10 minutes before addition of the DNA template. […]

[2] = tested on: cytoplasmic extract-dependent modification of the 5′ VHL E3 target site; experiment: Peptide competition of cytoplasmic extract-dependent modification of GAL-HIF-1α 344-553, in vitro VHL E3 ubiquitylation; assay type: biochemical, human; conditions: 12.5 μM peptide, RCC4 cytoplasmic extract
Method: The E1 activating enzyme used in ubiquitylation assays was either obtained from Affiniti Research (Exeter, UK) or purified from BL21 (DE3) E. coli transfected with plasmid expressing His6-tagged mouse E1. His6-E1 was purified by Ni^2+-agarose affinity chromatography. After dialysis against phosphate buffered saline, glycerol was added to 10% (vol/vol) and 25 ng/μl aliquots stored at −80° C. Human CDC34 recombinant E2 enzyme was from Affiniti Research (Exeter, UK). VHL E3 was obtained by anti-HA immunoprecipitation from stably transfected 7860-VHLHA cell lysates (Iliopoulos et al). GAL-HIF-1α substrate was prepared by anti-GAL immunoprecipitation from [^35S] methionine-labeled TnT rabbit reticulocyte (Promega) translates. Each 40 μl ubiquitylation reaction consisted of 4 μl of 5 mg/ml ubiquitin, 4 μl of 10×ATP regenerating system (20 mM Tris pH7.5, 10 mM ATP, 10 mM magnesium acetate, 300 mM creatine phosphate, 0.5 mg/ml creatine phosphokinase), 2 μl, E1, 3 μl E2, 6 μl VHL E3 immunopurified on protein G sepharose, 6 μl GAL-HIF-1α substrate immunopurified on agarose beads. Reactions were incubated at 30° C. for 2 h with occasional mixing, stopped by the addition of SDS sample buffer and analysed by SDS-PAGE and autoradiography. Cytoplasmic extract-based ubiquitylation assays have been previously described (Cockman).
It has been shown above that the 3′ VHL E3 target site responds to oxygen level via hydroxylation at proline residue 564. This praline residue forms part of a potential motif conserved between the 5′ and 3′ target sites. Mutation of the corresponding proline residue (P402A) in the 5′ target site also results in functional inactivation. It was possible therefore that proline residue 402 was also a target for regulatory hydroxylation, To test this we asked whether polypeptides corresponding to the 3′ VHL E3 target site could interfere with the cytoplasmic extract-dependent modification of the 5′ VHL E3 target site. […]

| Compound | capture of HIF-1α by pVHL.HA (HIF-α/pVHL interaction) | Fe(II) supplementation giving full activation of modifying activity [1] [µM] | blocking of HIF-1α/pVHL interaction by polypeptide after exposure to cell extract (HIF-1α/pVHL interaction) | competition of cytoplasmic extract effect on VHL-dependent ubiquitylation of GAL 344-553 [2] |
| --- | --- | --- | --- | --- |
| [Cl][Fe][Cl] [Fe(II), ferrous chloride, reference compound] | greatly enhanced capture | 5 |  |  |
| Pro564Gly: HIF-1α 556-574 polypeptide where the critical proline is mutated to glycine (DLDLEMLAGYIPMDDDFQL; UniProt Q16665 556-574, looked up, fragment P564G) |  |  | did not block | no effect |
